Reference: paper PMC13242511, “Disrupting Notch signalling by a small molecule inhibiting dihydroorotate dehydrogenase activity” (Scientific Reports, 2026)

Key:
Format in all cases: cell-based
MDA-MB-468 cells = experiment: Growth inhibition, metabolic activity (CellTiter-Glo); details: Homo sapiens; MDA-MB-468, six days; read-out: approximated IC50, metabolic activity
From the text: (§1) We next investigated whether compounds A-E affected growth and viability of cell lines from T-cell acute lymphoblastic leukaemia (T-ALL) and breast cancer, two tumour types in which elevated Notch signalling has been implicated in tumorigenesis. […] When testing analogues of compounds B and C, five of the seven B analogues and one of the two C analogues produced dose–response curves and IC50s, which however were higher compared to the original hits (Supplemental Fig. 5A; IC50s are presented in Supplemental Table 6).
(§2) Compounds were spotted on white 384-well tissue culture plates (Greiner, cat #781080) using an Echo 525 Acoustic liquid handler (Labcyte). Cells were grown to 80% confluence, detached if required, counted and 20 µl containing 2000–4000 cells per well was then seeded in each well and cultivated for three (4,000 cells seeded) and six days (2,000 cells seeded). […] Luciferase activity (reading out metabolic activity) was determined using the CellTiter-Glo 2.0 kit (CTG, Promega, cat #G9242) following the manufacturer’s instructions and luminescence was measured on a SpectraMaxi3 or Varioscan plate reader (Molecular Devices, Thermofisher).

Notch signalling = experiment: DHODH inhibitor and uridine rescue experiment (Notch reporter assay); details: 1 and 10 µM, 24 h
Experimental: HEK293T Notch reporter cells (#A1-11) were grown to 80% confluency, detached and mixed with the indicated compounds and doses with or without uridine (Sigma-Aldrich, cat #U3003). 10,000 cells/well were then seeded into 96-well cell culture plates (ThermoFisher, cat #136102) and incubated for 24 h. DMSO treatment with or without uridine served as control for each treatment. Cells were then subjected to Notch reporter assays, and luciferase signals were recorded on a Varioscan Lux microplate reader (ThermoFisher). Reporter signals from each treatment were normalised to the respective DMSO control, as described above and three independent assays were recorded with at least two technical replicates per treatment.

HES-1 in JURKAT cells = experiment: Western blot analysis of HES1 protein; details: 2 µM, 48 h, Fig. 8C
Experimental: (§3) Cells were washed in ice-cold PBS and incubated for 30 min on ice with RIPA cell lysis buffer (Thermofisher, cat #89900) containing protease and phosphatase inhibitors (Thermofisher, cat #78442), scraped off and homogenized using a 25G syringe, and subsequently centrifugated for 10 min at > 13,000xg. […] After electrophoresis, gels were placed directly onto a TransBlot Turbo PVDF or nitrocellulose membrane (Bio-rad, cat #1704157 and cat #1704159) and transferred using the “HIGH MW” protocol (Bio-Rad). Subsequently, membranes were blocked for 1 h at room temperature using Clear Milk Blocking Buffer (ThermoFisher, cat #37587) supplemented with 0.1% Tween20 (Sigma-Aldrich, cat #P1379). Detection of antibody binding was performed by using Clarity Western ECL-Substrate (Bio-rad, cat #1705060S). Beta-Actin protein signals were used as a loading control. Western blot membranes were in some experiments stripped after development (indicated in the figure in each respective case) by washing the membranes twice for 10 min in PBS, followed by incubation in membranes in western blot stripping buffer (ThermoFisher, cat #21059) for 30 min at room temperature and gentle agitation. […] Protein expression levels of western blot bands were quantified using Fiji (V.2.16) with beta-Actin signals for normalisation (Supplemental Table 8). […]

HES1 in MDA-MB-231 cells = experiment: Western blot analysis of HES1 protein; details: MDA-MB-231, 2 µM, 48 h; Fig. 8C
Experimental: as §3

NOTCH1 = experiment: Cycloheximide chase experiment (half-life of cleaved NOTCH1); set-up: key to NOTCH1 (TMICD), DMSO as reference: western blot band intensity normalised to beta-Actin, relative to DMSO; details: for NOTCH1/ (TMICD) band intensity: 5 µM
Experimental: HEK293T Notch reporter cells (clone #A1-11) were grown to 80% confluence, detached and counted. 50,000 cells were then seeded in each well of a 24-well tissue culture plate (Sarstedt, cat # 83.3924), cultivated to approximately 85% confluence and treated with 5 µM of the respective compound and 50 µg/ml Cycloheximide (CHX) solution (Sigma-Aldrich, cat #C4859-1ML). Each well was then incubated with 500 µl of compound and CHX solution and compound and CHX solution were added after the indicated intervals to another well for a total time of eight hours. Next, medium was aspirated off and cells were lysed in RIPA buffer (Thermofisher, cat #89900) containing Protease and Phosphatase inhibitors (Thermofisher, cat #78442) for 30 min on ice. Lysates were thoroughly vortexed, centrifugated for 10 min at > 13,000×g and supernatant was transferred to a fresh cup and stored at -80 °C.
Cells were washed in ice-cold PBS and incubated for 30 min on ice with RIPA cell lysis buffer (Thermofisher, cat #89900) containing protease and phosphatase inhibitors (Thermofisher, cat #78442), scraped off and homogenized using a 25G syringe, and subsequently centrifugated for 10 min at > 13,000xg. […] After electrophoresis, gels were placed directly onto a TransBlot Turbo PVDF or nitrocellulose membrane (Bio-rad, cat #1704157 and cat #1704159) and transferred using the “HIGH MW” protocol (Bio-Rad). Subsequently, membranes were blocked for 1 h at room temperature using Clear Milk Blocking Buffer (ThermoFisher, cat #37587) supplemented with 0.1% Tween20 (Sigma-Aldrich, cat #P1379). Detection of antibody binding was performed by using Clarity Western ECL-Substrate (Bio-rad, cat #1705060S). Beta-Actin protein signals were used as a loading control. Western blot membranes were in some experiments stripped after development (indicated in the figure in each respective case) by washing the membranes twice for 10 min in PBS, followed by incubation in membranes in western blot stripping buffer (ThermoFisher, cat #21059) for 30 min at room temperature and gentle agitation. Stripped membranes were washed twice with PBS and incubated for 30 min in blocking buffer before incubation with primary antibody. A list of all antibodies used in this study is provided in Supplemental Table 6. Uncropped western blot images are provided in […]. Protein expression levels of western blot bands were quantified using Fiji (V.2.16) with beta-Actin signals for normalisation (Supplemental Table 8). Uncropped western blot images are provided in Supplemental Fig. 10.

TALL-1 cells = experiment: Growth inhibition, metabolic activity (CellTiter-Glo); details: Homo sapiens; TALL-1, six days; read-out: approximated IC50, growth (metabolic activity)
From the text: as §1, §2

[1] = timepoint 0 (hours after cycloheximide)
[2] = timepoint 1 (hours after cycloheximide)
[3] = timepoint 2 (hours after cycloheximide)
[4] = timepoint 4 (hours after cycloheximide)
[5] = timepoint 6 (hours after cycloheximide)
[6] = timepoint 8 (hours after cycloheximide)

Structure (SMILES) | IC50 (MDA-MB-468 cells) [µM] | NOTCH1/ (TMICD) band intensity (NOTCH1; [1]) | NOTCH1 (TMICD) normalized to beta-Actin (used for plots) (NOTCH1; timepoint 0, 5 µM) | NOTCH1 (TMICD), DMSO as reference (NOTCH1; timepoint 0, 5 µM) | NOTCH1/ (TMICD) band intensity (NOTCH1; [2]) | NOTCH1 (TMICD) normalized to beta-Actin (used for plots) (NOTCH1; timepoint 1, 5 µM) | NOTCH1 (TMICD), DMSO as reference (NOTCH1; timepoint 1, 5 µM) | NOTCH1/ (TMICD) band intensity (NOTCH1; [3]) | NOTCH1 (TMICD) normalized to beta-Actin (used for plots) (NOTCH1; timepoint 2, 5 µM) | NOTCH1 (TMICD), DMSO as reference (NOTCH1; timepoint 2, 5 µM) | NOTCH1/ (TMICD) band intensity (NOTCH1; [4]) | NOTCH1 (TMICD) normalized to beta-Actin (used for plots) (NOTCH1; timepoint 4, 5 µM) | NOTCH1 (TMICD), DMSO as reference (NOTCH1; timepoint 4, 5 µM) | NOTCH1/ (TMICD) band intensity (NOTCH1; [5]) | NOTCH1 (TMICD) normalized to beta-Actin (used for plots) (NOTCH1; timepoint 6, 5 µM) | NOTCH1 (TMICD), DMSO as reference (NOTCH1; timepoint 6, 5 µM) | NOTCH1/ (TMICD) band intensity (NOTCH1; [6]) | NOTCH1 (TMICD) normalized to beta-Actin (used for plots) (NOTCH1; timepoint 8, 5 µM) | NOTCH1 (TMICD), DMSO as reference (NOTCH1; timepoint 8, 5 µM) | IC50 (TALL-1 cells) [µM] | other results
COc1cccc(CNc2ccc(N3CCCCC3)cc2)c1OCc1cccs1 [compound C] | 1.7 | 11149.0 | 0.8 | 1.0 | 9563.6 | 0.7 | 0.9 | 5022.2 | 0.4 | 0.5 | 5169.6 | 0.347 | 0.442 | 6218.3 | 0.362 | 0.46 | 4511.9 | 0.277 | 0.352 | – | effect on Notch reporter activity after addition of uridine (Notch signalling; plus 100 µM uridine): reversed; Notch reporter assay activity (Notch signalling; without uridine): reduced the reporter assay activity; level of HES-1 protein (HES-1 in JURKAT cells): reduced; HES1 protein levels (HES1 in MDA-MB-231 cells): reduction in HES1 levels
CC(C)(C(=O)NCC(F)(F)C(F)(F)F)C(=O)N[C@@H]1C(=O)Nc2ccccc2-c2ccccc21 [RO4929097, reference compound] | – | 20583.6 | 1.3 | 1.0 | 14235.7 | 0.8 | 0.6 | 11993.7 | 0.6 | 0.5 | 14001.0 | 0.8 | 0.6 | 9107.8 | 0.8 | 0.6 | 9737.6 | 0.7 | 0.53 | – | protein stability of NOTCH1 (in words) (NOTCH1; cycloheximide chase, Supplemental Fig. 8B): enhanced protein stability
Cc1ccc2[nH]c3c(c2c1)CCOC31CCN(Cc2ccccc2-c2ccccc2)CC1 [compound B] | 1.1 | – | – | – | – | – | – | – | – | – | – | – | – | – | – | – | – | – | – | 6.7 | –
CC(C)(C)c1ccc(Oc2ccc(N)cn2)cc1 [CB-103, reference compound] | – | – | – | – | – | – | – | – | – | – | – | – | – | – | – | – | – | – | – | 0.3 | –
